Measurements as given in patent US9546157B2, “Asymmetric piperidinyl-substituted ureas as medicines” (Helsinn Healthcare SA, priority 2014, dated 2017).
pEC50, pIC50: −log10 of the molar value.

What was measured:
GHSR1a [1] = target: T1, GHSR1a (Homo sapiens, UniProt Q92847); assay: Calcium FLIPR assay, GHSR-1a antagonism (reduction of ghrelin response); assay type: cell-based; conditions: HEK293/GHSR1a cells, ghrelin 10 nM
T1 construct: expressed in transfected cells; host or cells: HEK293
Method in brief: (§1)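 Uses HEK293 cells expressing GHSR1a, loaded with calcium dye, with FLIPR fluorescence followed for 2 min after addition at t=20 s. Agonism: compound alone. Antagonism: compound with 10 nM ghrelin, potency from reduction of ghrelin response; EC50/IC50 from dose-response curves.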

GHSR1a [2] = target: T1, GHSR1a; assay: Calcium FLIPR assay, GHSR-1a agonism; assay type: cell-based; design: Emax: unit not given here; conditions: HEK293/GHSR1a cells
Method in brief: as §1

T1 sequence (Q92847 whole entry): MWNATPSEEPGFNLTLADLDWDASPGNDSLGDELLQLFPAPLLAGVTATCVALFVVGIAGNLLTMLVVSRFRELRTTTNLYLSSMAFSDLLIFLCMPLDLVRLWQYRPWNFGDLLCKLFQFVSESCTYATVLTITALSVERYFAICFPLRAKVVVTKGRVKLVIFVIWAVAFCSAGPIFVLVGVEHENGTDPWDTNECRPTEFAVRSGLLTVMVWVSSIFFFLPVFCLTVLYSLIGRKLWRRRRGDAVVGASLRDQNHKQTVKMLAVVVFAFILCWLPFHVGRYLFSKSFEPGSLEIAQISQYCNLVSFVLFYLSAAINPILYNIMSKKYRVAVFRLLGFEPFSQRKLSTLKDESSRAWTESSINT

Row | SMILES | pIC50 (GHSR1a [1]) | pEC50 (GHSR1a [2]) | Emax (GHSR1a [2])
1 | CC(NC(=O)N(C)C1CCN(C)CC1)c1ccc(-c2cnc(CO)cn2)c(Cl)c1Cl (stereo not shown) [Compound H0770, 3-(1-(2,3-dichloro-4-(5-(hydroxymethyl)pyrazin-2-yl)phenyl)ethyl)-1-methyl-1-(1-methylpiperidin-4-yl)urea] | 6.15 | 6.53 | 1783
2 | CC(NC(=O)N(C)C1CCN(C)CC1)c1ccc(C(=O)Nc2cccs2)c(Cl)c1Cl (stereo not shown) [Compound H0773, 2,3-dichloro-4-(1-(3-methyl-3-(1-methylpiperidin-4-yl)ureido)ethyl)-N-(thiophen-2-yl)benzamide] | 6.22 | < 4.52 | 
3 | CC(NC(=O)N(C)C1CCN(C)CC1)c1ccc(-c2sccc2C(N)=O)c(Cl)c1Cl (stereo not shown) [Compound H0774, 2-(2,3-dichloro-4-(1-(3-methyl-3-(1-methylpiperidin-4-yl)ureido)ethyl)phenyl)thiophene-3-carboxamide] | 5.47 | < 4.52 | 
4 | CC(NC(=O)N(C)C1CCN(C)CC1)c1ccc(C#Cc2ccc(C(N)=O)s2)c(Cl)c1Cl (stereo not shown) [Compound H0776, 5-((2,3-dichloro-4-(1-(3-methyl-3-(1-methylpiperidin-4-yl)ureido)ethyl)phenyl)ethynyl)thiophene-2-carboxamide] | 6.92 | < 5.40 | 
5 | CC(NC(=O)N(C)C1CCN(C)CC1)c1ccc(Nc2cccs2)c(Cl)c1Cl (stereo not shown) [Compound H0777, 3-(1-(2,3-dichloro-4-(thiophen-2-ylamino)phenyl)ethyl)-1-methyl-1-(1-methylpiperidin-4-yl)urea] | 6.15 | 6.22 | 2288
6 | CC(NC(=O)N(C)C1CCN(C)CC1)c1ccc(-c2ccnnc2)c(Cl)c1Cl (stereo not shown) [Compound H0783, 3-(1-(2,3-dichloro-4-(pyridazin-4-yl)phenyl)ethyl)-1-methyl-1-(1-methylpiperidin-4-yl)urea] | 6.17 | 7.52 | 
7 | CC(NC(=O)N(C)C1CCN(C)CC1)c1ccc(NC(=O)Nc2cccs2)c(Cl)c1Cl (stereo not shown) [Compound H0784, 3-(1-(2,3-dichloro-4-(4-(thiophen-2-yl)ureido)phenyl)ethyl)-1-methyl-1-(1-methylpiperidin-4-yl)urea] | 6.28 | < 4.52 | 
8 | CC(NC(=O)N(C)C1CCN(C)CC1)c1ccc(-c2cncc(CCl)n2)c(Cl)c1Cl (stereo not shown) [Compound H0786, 3-(1-(2,3-dichloro-4-(6-(chloromethyl)pyrazin-2-yl)phenyl)ethyl)-1-methyl-1-(1-methylpiperidin-4-yl)urea] | 6.07 | 6.62 | 980
9 | CC(NC(=O)N(C)C1CCN(C)CC1)c1ccc2c(NC3CC3)noc2c1 (stereo not shown) [Compound H0787, 3-(1-(3-(cyclopropylamino)benzo[d]isoxazol-6-yl)ethyl)-1-methyl-1-(1-methylpiperidin-4-yl)urea] | 4.92 | 5.52 | 
10 | CC(NC(=O)N(C)C1CCN(C)CC1)c1ccc(-c2cncc(C#N)n2)c(Cl)c1Cl (stereo not shown) [Compound H0788, 3-(1-(2,3-dichloro-4-(6-cyanopyrazin-2-yl)phenyl)ethyl)-1-methyl-1-(1-methylpiperidin-4-yl)urea] | 7.06 | 7.70 | 1230
11 | COC(=O)c1cncc(-c2ccc(C(C)NC(=O)N(C)C3CCN(C)CC3)c(Cl)c2Cl)n1 (stereo not shown) [Compound H0789, methyl 6-(2,3-dichloro-4-(1-(3-methyl-3-(1-methylpiperidin-4-yl)ureido)ethyl)phenyl)pyrazine-2-carboxylate] | 6.55 | 7.59 | 1137
12 | CC(NC(=O)N(C)C1CCN(C)CC1)c1ccc(-c2nc(N3CCOCC3)nc(N3CCOCC3)n2)c(Cl)c1Cl (stereo not shown) [Compound H0796, 3-(1-(2,3-dichloro-4-(4,6-dimorpholino-1,3,5-triazin-2-yl)phenyl)ethyl)-1-methyl-1-(1-methylpiperidin-4-yl)urea] | 6.08 | 5.52 | 1671
13 | CC(NC(=O)N(C)C1CCN(C)CC1)c1ccc(-c2cnc(O)nc2)c(Cl)c1Cl (stereo not shown) [Compound H0797, 3-(1-(2,3-dichloro-4-(2-hydroxypyrimidin-5-yl)phenyl)ethyl)-1-methyl-1-(1-methylpiperidin-4-yl)urea] | 6.23 | 5.74 | 2879
14 | CC(NC(=O)N(C)C1CCN(C)CC1)c1ccc(-c2cnc(N)nc2)c(Cl)c1Cl (stereo not shown) [Compound H0798, 3-(1-(4-(2-aminopyrimidin-5-yl)-2,3-dichlorophenyl)ethyl)-1-methyl-1-(1-methylpiperidin-4-yl)urea] | 6.79 | < 4.52 | 
15 | CC(NC(=O)N(C)C1CCN(C)CC1)c1ccc(-c2cnc(F)nc2)c(Cl)c1Cl (stereo not shown) [Compound H0800, 3-(1-(2,3-dichloro-4-(2-fluoropyrimidin-5-yl)phenyl)ethyl)-1-methyl-1-(1-methylpiperidin-4-yl)urea] | 5.89 | < 4.52 | 
16 | CC(NC(=O)N(C)C1CCN(C)CC1)c1ccc(-c2cnc(C#N)nc2)c(Cl)c1Cl (stereo not shown) [Compound H0802, 3-(1-(2,3-dichloro-4-(2-cyanopyrimidin-5-yl)phenyl)ethyl)-1-methyl-1-(1-methylpiperidin-4-yl)urea] | 7.00 | 6.82 | 4149
17 | CC(NC(=O)N(C)C1CCN(C)CC1)c1ccc(-c2cnc(-n3ccnc3)nc2)c(Cl)c1Cl (stereo not shown) [Compound H0803, 3-(1-(4-(2-(1H-imidazol-1-yl)pyrimidin-5-yl)-2,3-dichlorophenyl)ethyl)-1-methyl-1-(1-methylpiperidin-4-yl)urea] | 6.77 | 6.83 | 2364
18 | CC(NC(=O)N(C)C1CCN(C)CC1)c1ccc(-c2cnc(N(C)C)nc2)c(Cl)c1Cl (stereo not shown) [Compound H0804, 3-(1-(2,3-dichloro-4-(2-(dimethylamino)pyrimidin-5-yl)phenyl)ethyl)-1-methyl-1-(1-methylpiperidin-4-yl)urea] | 6.43 | 6.58 | 2740

Stronger by pIC50 (GHSR1a [1]), values ahead:

Row | pIC50 (GHSR1a [1]) | pEC50 (GHSR1a [2]) | Emax (GHSR1a [2]) | SMILES
19 | 7.12 | < 4.52 |  | CC(NC(=O)N(C)C1CCN(C)CC1)c1ccc(-c2cncc(Cl)n2)c(Cl)c1Cl (stereo not shown) [Compound H0791, 3-(1-(2,3-dichloro-4-(6-chloropyrazin-2-yl)phenyl)ethyl)-1-methyl-1-(1-methylpiperidin-4-yl)urea]
20 | 7.13 | < 5.30 |  | CC(NC(=O)N(C)C1CCN(C)CC1)c1ccc(C#Cc2ccc(CO)s2)c(Cl)c1Cl (stereo not shown) [Compound H0775, 3-(1-(2,3-dichloro-4-((5-(hydroxymethyl)thiophen-2-yl)ethynyl)phenyl)ethyl)-1-methyl-1-(1-methylpiperidin-4-yl)urea]
21 | 7.20 | < 4.52 |  | CC(NC(=O)N(C)C1CCN(C)CC1)c1ccc(-c2cncc(N)n2)c(Cl)c1Cl (stereo not shown) [Compound H0780, 3-(1-(4-(6-aminopyrazin-2-yl)-2,3-dichlorophenyl)ethyl)-1-methyl-1-(1-methylpiperidin-4-yl)urea]
22 | 7.46 | 7.49 | 2810 | CC(NC(=O)N(C)C1CCN(C)CC1)c1ccc(C#N)c2ccccc12 (stereo not shown) [Compound H0790, 3-(1-(4-cyanonaphthalen-1-yl)ethyl)-1-methyl-1-(1-methylpiperidin-4-yl)urea]
23 | 7.48 | 7.05 | 2869 | CC(NC(=O)N(C)C1CCN(C)CC1)c1ccc(C#CCc2cccs2)c(Cl)c1Cl (stereo not shown) [Compound H0785, 3-(1-(2,3-dichloro-4-(3-(thiophen-2-yl)prop-1-yn-1-yl)phenyl)ethyl)-1-methyl-1-(1-methylpiperidin-4-yl)urea]
24 | 7.68 | 7.66 | 3501 | CC(NC(=O)N(C)C1CCN(C)CC1)c1ccc(-c2nccnn2)c(Cl)c1Cl (stereo not shown) [Compound H0793, 3-(1-(2,3-dichloro-4-(1,2,4-triazin-3-yl)phenyl)ethyl)-1-methyl-1-(1-methylpiperidin-4-yl)urea]
25 | 7.70 | 7.35 | 3915 | CC(NC(=O)N(C)C1CCN(C)CC1)c1ccc(-c2cnc(Cl)nc2)c(Cl)c1Cl (stereo not shown) [Compound H0801, 3-(1-(2,3-dichloro-4-(2-chloropyrimidin-5-yl)phenyl)ethyl)-1-methyl-1-(1-methylpiperidin-4-yl)urea]
26 | 7.80 | 8.15 | 1096 | CC(NC(=O)N(C)C1CCN(C)CC1)c1ccc(-c2cnc(N)s2)c(Cl)c1Cl (stereo not shown) [Compound H0792, 3-(1-(4-(2-aminothiazol-5-yl)-2,3-dichlorophenyl)ethyl)-1-methyl-1-(1-methylpiperidin-4-yl)urea]
27 | 8.05 | 8.05 | 4662 | CC(NC(=O)N(C)C1CCN(C)CC1)c1ccc(-c2cnc(C(=O)N(C)C)cn2)c(Cl)c1Cl (stereo not shown) [Compound H0771, 5-(2,3-dichloro-4-(1-(3-methyl-3-(1-methylpiperidin-4-yl)ureido)ethyl)phenyl)-N,N-dimethylpyrazine-2-carboxamide]
28 | 8.27 | 7.85 | 5031 | CC(NC(=O)N(C)C1CCN(C)CC1)c1ccc(-c2cnc(N3CCN(C)CC3)nc2)c(Cl)c1Cl (stereo not shown) [Compound H0799, 3-(1-(2,3-dichloro-4-(2-(4-methylpiperazin-1-yl)pyrimidin-5-yl)phenyl)ethyl)-1-methyl-1-(1-methylpiperidin-4-yl)urea]
29 | 8.52 | 8.15 | 3569 | CC(NC(=O)N(C)C1CCN(C)CC1)c1ccc(NC(=O)c2cccs2)c(Cl)c1Cl (stereo not shown) [Compound H0772, N-(2,3-dichloro-4-(1-(3-methyl-3-(1-methylpiperidin-4-yl)ureido)ethyl)phenyl)thiophene-2-carboxamide]
30 | 8.52 | 8.00 | 4435 | CC(NC(=O)N(C)C1CCN(C)CC1)c1ccc(-c2csc(N)n2)c(Cl)c1Cl (stereo not shown) [Compound H0794, 3-(1-(4-(2-aminothiazol-4-yl)-2,3-dichlorophenyl)ethyl)-1-methyl-1-(1-methylpiperidin-4-yl)urea]
